Data set [1] can be described thus: CFA arthritis rats, hematological parameters. In kind it is in vivo, rat. The conditions noted are these: for effect on blood parameters compared to vehicle-treated arthritic group: E3 1 mg/kg or 911 10 mg/kg i.v. D14+D19, indomethacin 3 mg/kg/day p.o. 10 days; for Hematocrit / Hemoglobin / Platelets / Red blood cells / White blood cells: arthritic rats, E3 1 mg/kg or 911 10 mg/kg i.v. D14+D19, indomethacin 3 mg/kg p.o. over 10 days, D24. On the procedure: On Day 24 (after paw volume and arthritis index measurements and test vocalization), under general anaesthesia using isoflurane (in a mixture of oxygen and nitrous oxide), the blood samples (about 800-1000 μl) was collected by capillary action with a micropipette from retroorbital sinus.
Blood collection for hematological parameters (groups 1-2-3-4-5: 50 vials): A part of blood sample was collected in tubes containing K3—EDTA (at least 100 μL). The determination of parameters were performed on the day of the collection and the samples were not stored. The hematological parameters including red blood cells, white blood cells, platelets, hemoglobin, hematocrit were measured with a hematology cell counter (D 24). Some hematological parameters were not measured due to the clotted samples (vehicle-freated non arthritic rat: #10; E3-treated arthritic rats: #59, #67; 911-treated arthritic rats: #16).

Data set [2] deals with complete Freund's adjuvant (CFA)-induced chronic arthritis. The data set can be described thus: CFA arthritis rats, X-ray analysis of hindpaws (radiological index). The note with it: for X-ray score: Deformity / X-ray score: Demineralization / X-ray score: Erosions / X-ray score: Periostal reaction / X-ray score: Soft tissue damage / X-ray score: Space joint / X-ray score: osteogenesis: score 0-4. In kind it is in vivo, rat. How it is done: On Day 24, after blood collecting the animals were sacrificed and X-ray radiographies (hindpaws) were obtained for assessment of joint lesions. X-ray analysis was focused on articular erosions, articular space, periosteum abnormalities on both hindpaws. All the radiographies were analyzed by looking at seven different items: the soft tissue damage, deformity, demineralization, joint space, erosions, osteogenesis and periostal reaction. For each animal, the first six items were analyzed independently by looking at the worse hind foot. The periostal reaction was analyzed by looking at the tail. For each item, the score goes from 0 (normal) to 4 (maximal damage). Therefore the total score goes from 0 to 28. The radiographic interpretation was done by the same reader without knowing anything about the animals (treated or not treated).
All results were reported as Mean ±S.E.M. of 10 rats in each group at each time point. Paw volume was expressed in ml calculated from the mean value of the right and left paw volume. Arthritis index was calculated from the sum of the score obtained for each of the 4 paws. The nociceptive response was evaluated by the intensity of the level of vocalization recorded for each animal (mean of 4 values: 2 times/paw) in mV. The percentage inhibition of the nociceptive response was calculated from the mean value of the vehicle-treated arthritic group [(mean value of vehicle-treated arthritic group−mean value of treated arthritic group/mean value of vehicle-treated arthritic group)*100]. Body weight was expressed in grams. Hindpaws (left and right) weight was expressed in grams. Cytokine levels (IL-6, IL-1β, TNF-α and TGF-β1) of each hind paw was expressed in pg/ml. Circulating levels of TGF-β1 was expressed in pg/ml. Radiological index for each parameter (demineralization, erosions, periostal reaction, soft tissue damage, space joint, osteogenesis deformity) and total radiological index (total score) were calculated from the sum of the scores obtained for each parameter. The inter-group significances of the deviations between the values of vehicle-treated group (arthritic rats) and vehicle-treated group (non arthritic rats) were assessed by the Student t test or Mann-Whitney Rank Sum Test when equal variance or normality test failed. The inter-group significances of the deviations between the values of vehicle-treated group (arthritic rats) and E3- and 911- and Indomethacin-treated groups were assessed by the 1-way analysis of variance ANOVA followed by the non-paired Dunnett t test. A probability of P<0.05 was considered as significant. All statistical analysis was performed by the Sigmastat™ software.

[3] abbreviates: arthritic rats, E3 1 mg/kg or 911 10 mg/kg i.v. D14+D19, indomethacin 3 mg/kg p.o., D24.

With `COc1ccc2c(c1)c(CC(=O)O)c(C)n2C(=O)c1ccc(Cl)cc1` [Indomethacin, reference compound], in data set [1], the “effect on blood parameters compared to vehicle-treated arthritic group” value was “did not affect the blood parameters”, the Hematocrit was 35.0 ± 1.5%, the Hemoglobin is 11.8 ± 0.6 g/dL and the Platelets is listed as 705 ± 111 10^3/mm^3. Further, in data set [1], the Red blood cells is reported as 6.93 ± 0.31 10^6/mm^3 and the White blood cells is listed as 21.7 ± 2.5 10^3/mm^3. Further, in data set [2] (indomethacin 3 mg/kg/day p.o. 10 days), the “decrease of X-ray total score in comparison to vehicle-treated arthritic rats” value is listed as “about 10.7”. Also, in data set [2] (setting [3]), the “X-ray score: Deformity” value amounted to 0.4 ± 0.2, the “X-ray score: Demineralization” value is reported as 0.3 ± 0.2, the “X-ray score: Erosions” value was 0.9 ± 0.2 and the “X-ray score: Periostal reaction” value is 0.7 ± 0.3. In addition, in data set [2] (setting [3]), the “X-ray score: Soft tissue damage” value worked out at 1.0 ± 0.2, the “X-ray score: Space joint” value is 1.0 ± 0.2 and the “X-ray score: osteogenesis” value was determined as 0.1 ± 0.1.

B1: E3: humanized, affinity matured anti-NGF antagonist antibody; variable regions SEQ ID NO:1 and 2; human IgG2a (A330P331 to S330S331), kappa (antibody, V domains shown)
VH: QVQLQESGPGLVKPSETLSLTCTVSGFSLIGYDLNWIRQPPGKGLEWIGIIWGDGTTDYNSAVKSRVTISKDTSKNQFSLKLSSVTAADTAVYYCARGGYWYATSYYFDYWGQGTLVTVS
VL: DIQMTQSPSSLSASVGDRVTITCRASQSISNNLNWYQQKPGKAPKLLIYYTSRFHSGVPSRFSGSGSGTDFTFTISSLQPEDIATYYCQQEHTLPYTFGQGTKLEIKRT
modifications: human IgG2a constant (A330S/P331S) and kappa constant missing
B1: in data set [1], the “effect on blood parameters compared to vehicle-treated arthritic group” value is listed as “did not affect the blood parameters”, the Hematocrit worked out at 38.5 ± 1.0%, the Hemoglobin was 12.9 ± 0.3 g/dL and the Platelets is 827 ± 77 10^3/mm^3. In data set [1], the Red blood cells is 7.74 ± 0.17 10^6/mm^3 and the White blood cells is 19.1 ± 1.2 10^3/mm^3. In data set [2] (setting [3]), the “X-ray score: Deformity” value is recorded as 1.8 ± 0.2, the “X-ray score: Demineralization” value came out at 2.0 ± 0.2, the “X-ray score: Erosions” value was determined as 2.4 ± 0.3 and the “X-ray score: Periostal reaction” value was 0.8 ± 0.2. Also, in data set [2] (setting [3]), the “X-ray score: Soft tissue damage” value is 3.3 ± 0.3, the “X-ray score: Space joint” value turned out to be 2.7 ± 0.2 and the “X-ray score: osteogenesis” value is 1.2 ± 0.2. In data set [2] (score 0-28, arthritic rats, E3 1 mg/kg or 911 10 mg/kg i.v. D14+D19, indomethacin 3 mg/kg p.o., D24), the “X-ray TOTAL score” value stood at 14.2±1.3.

Values taken from patent US20080182978A1, “ANTI-NGF ANTIBODIES AND METHODS USING SAME” (RINAT NEUROSCIENCE CORP, priority 2002, published 2008).
